# Laboratory results from patent US9889184B2 (priority 2008, dated 2018).
# Where two headings read alike, the source gives them in different places.
# Key:
# [1] = test system: Fusarium oxysporum f. sp. vasinfectum (Fov); test: Growth inhibition of Fov by NaD1 (microtitre OD595); assay type: cell-based
# Protocol: Lyophilized NaD1 (500 μg) was dissolved in 400 μL of stock buffer (200 mM Tris-HCl pH 8.0, 2 mM EDTA, 6 M guanidine-HCl, 0.02% [v/v] Tween-20). Reduction buffer (stock buffer with 15 mM dithiothreitol [DTT]) was added (44 μL) followed by a 4.5 h incubation at 40° C. The reaction mixture was cooled to RT before iodoacetic acid (0.5 M in 1 M NaOH, 55 μL) was added and the incubation continued in the dark for 30 min at RT. A Nanosep omega (Registered) spin column (3K molecular weight cut off, PALL Life Sciences) was used to remove salts, DTT and iodoacetic acid and the protein concentration was determined using the BCA protein assay (Pierce). The effect of reduced and alkylated NaD1 (NaD1R&A) on the growth of Fusarium oxysporum (Fov) was measured as described herein.
# Antifungal activity against Fusarium oxysporum f. sp. vasinfectum (Fov, Australian isolate VCG01111 isolated from cotton; from Wayne O'Neill, Farming Systems Institute, DPI, Queensland, Australia), Thielaviopsis basicola (gift from David Nehl, NSW DPI, Narrabri, Australia), Verticillium dahliae (from Helen McFadden, CSIRO Plant Industry, Black Mountain, Australia), Leptosphaeria maculans (from Barbara Howlett, University of Melbourne, Victoria, Australia) and Aspergillus nidulans (from Michael Hynes, University of Melbourne) was assessed essentially as described in Broekaert et al, 1990. Spores were isolated from sporulating cultures growing in either half-strength potato dextrose broth (PDB) (Fov and T. basicola), Czapeck-Dox Broth (V. dahliae) (Difco Laboratories) or 10% (v/v) clarified V8 medium (L. maculans and A. nidulans) by filtration through sterile muslin. Spore concentrations were determined using a hemocytometer and adjusted to 5×10^4 spores/mL in the appropriate growth medium. Spore suspensions (80 μL) were added to the wells of sterile 96-well flat-bottomed microtitre plates along with 20 μL of filter-sterilized (0.22 μm syringe filter; Millipore) NaD1, or water to give final protein concentrations of 0-10 μM. The plates were shaken briefly and placed in the dark at 25° C. without shaking until the optical density at 595 nm of the water control reached approximately 0.2 (24-72 h depending on growth rate). Hyphal growth was estimated by measuring the optical density at 595 nm using a microtitre plate reader (SpectraMax Pro M2; Molecular Devices). Each test was performed in quadruplicate.
# [2] = test system: Fusarium graminearum; assay type: cell-based
substance,measurement,setting,value
NaD1: plant defensin isolated from floral tissue of Nicotiana alata (SEQ ID NO:12) (RECKTESNTFPGICITKPPCRKACISEKFTDGHCSKILRRCLCTKPC; Nicotiana alata (NaD1)),growth retarded,"[1]; 1 μM NaD1, Fov",50%
same,growth inhibited,"[1]; 5 μM NaD1, Fov",more than 80%
same,growth inhibition of Fov by NaD1 with ROS scavenger,[1]; 10 mM ascorbic acid,nor did the presence of 10 mM ascorbic acid affect growth inhibition
same,IC50,[1]; Fusarium oxysporum f. sp. vasinfectum,1000 nM
same,growth inhibition of Fov,[1]; NaD1 0.1 μM,no growth inhibition was observed
same,growth inhibition of Fov,[1]; NaD1 concentration used for microscopy (10 μM),> 90%
same,toxicity with Fusarium graminearum,"[2]; 0.5 μM NaD1 combined with 0.5 μM/mL NaCys2, FIG. 3B",significantly enhanced
same,toxicity with Fusarium graminearum,"[2]; 0.5 μM NaD1 in the absence of NaCys2, FIG. 3B",very low
